{
  "source": "patent US20240108740A1",
  "about": "“THERAPEUTIC COMPOSITIONS INCLUDING SPN10 AND USES THEREOF” (Stealth BioTherapeutics Inc., priority 2022, published 2024)",
  "key": {"[1]": {"tested_on": "isolated mouse liver mitochondria", "test": "Example 10: uptake into isolated mitochondria", "assay_type": "in vitro ADME", "procedure": "To isolate mitochondria from mouse liver, mice will be sacrificed by decapitation. The liver will be removed and rapidly placed into chilled liver homogenization medium. The liver will be finely minced using scissors and then homogenized by hand using a glass homogenizer.\nThe homogenate will be centrifuged for 10 minutes at 1000×g at 4° C. The supernatant will be aspirated and transferred to polycarbonate tubes and centrifuged again for 10 minutes at 3000×g, 4° C. The resulting supernatant will be removed, and the fatty lipids on the side-wall of the tube will be removed.\nThe pellet will be resuspended in liver homogenate medium and the homogenization repeated twice. The final purified mitochondrial pellet will be resuspended in medium. Protein concentration in the mitochondrial preparation will be determined by the Bradford procedure.\nApproximately 1.5 mg mitochondria in 400 μL buffer will be incubated with [^3H] peptide conjugates; [^3H] aromatic-cationic peptides (an equivalent molar dose of aromatic-cationic peptide based on the concentration of the aromatic-cationic peptide administered in the peptide conjugate treatment group); [^3H] […] The mitochondria will then be centrifuged and the amount of radioactivity will be determined in the mitochondrial fraction and buffer fraction. […]"}, "[2]": {"tested_on": "Wild-type (WT) mice", "test": "Example 2: acute cerebral ischemia (occlusion of the right middle cerebral artery)", "assay_type": "in vivo, mouse", "procedure": "Cerebral ischemia will be induced by occlusion of the right middle cerebral artery for 30 min. Wild-type (WT) mice will be given either saline vehicle (Veh) (i.p., n=9), peptide conjugates (2 mg/kg or 5 mg/kg, i.p., n=6), aromatic-cationic peptides (e.g., an equivalent molar dose of aromatic-cationic peptide based on the concentration of the aromatic-cationic peptide administered in the peptide conjugate treatment group), SPN10(s) (e.g., an equivalent molar dose of SPN10 based on the concentration of SPN10 administered in the peptide conjugate treatment group), or SPN10(s) in combination with aromatic-cationic peptides (e.g., an equivalent molar dose of SPN10 based on the concentration of SPN10 administered in the peptide conjugate treatment group and an equivalent molar dose of aromatic-cationic peptide based on the concentration of aromatic-cationic peptide administered in the peptide conjugate treatment group) at 0, 6, 24 and 48 hours after ischemia. Mice will be sacrificed 3 days after ischemia. Brains will be frozen, sectioned, and stained using Nissl stain. Infarct volume and hemispheric swelling will be determined using an image analyzer. Data will be analyzed by one-way ANOVA with posthoc analysis."}},
  "note": "Residues, ends and D or L forms follow the SMILES beside them.",
  "data": [
    {"smiles": "N=C(N)NCCC[C@H](NC(=O)[C@@H](N)Cc1c[nH]c2ccccc12)C(=O)N[C@@H](Cc1c[nH]c2ccccc12)C(=O)N[C@@H](CCCCN)C(N)=O", "note": "[SPN10, H-L-Trp-L-Arg-L-Trp-L-Lys-NH2] (H-WRWK-NH2)", "values": [
      {"measurement": "concentration in mitochondria compared with buffer", "setting": "[1]; 5-30 minutes at 37° C.", "result": "higher than in the buffer"},
      {"measurement": "amount associated with the mitochondrial pellet after FCCP", "setting": "[1]; FCCP", "result": "decrease the amount"},
      {"measurement": "depletion of GSH in the ipsilateral cortex", "setting": "[2]; 2 mg/kg i.p. at 0, 6, 24 and 48 hours", "result": "significantly be reduced"},
      {"measurement": "infarct volume and hemispheric swelling", "setting": "[2]; treatment at 0, 6, 24 and 48 hours after 30 minute occlusion, compared to saline", "result": "significant reduction in infarct volume and hemispheric swelling"}
    ]}
  ]
}
